Results published in US7166618B2, “Nitrosated and nitrosylated cyclooxygenase-2 inhibitors, compositions and methods of use” (NitroMed, Inc., priority 1999, dated 2007).

Molecular target: T1, ovine COX-2 (Ovis aries, UniProt P79208)
T1 sequence (P79208 17-603): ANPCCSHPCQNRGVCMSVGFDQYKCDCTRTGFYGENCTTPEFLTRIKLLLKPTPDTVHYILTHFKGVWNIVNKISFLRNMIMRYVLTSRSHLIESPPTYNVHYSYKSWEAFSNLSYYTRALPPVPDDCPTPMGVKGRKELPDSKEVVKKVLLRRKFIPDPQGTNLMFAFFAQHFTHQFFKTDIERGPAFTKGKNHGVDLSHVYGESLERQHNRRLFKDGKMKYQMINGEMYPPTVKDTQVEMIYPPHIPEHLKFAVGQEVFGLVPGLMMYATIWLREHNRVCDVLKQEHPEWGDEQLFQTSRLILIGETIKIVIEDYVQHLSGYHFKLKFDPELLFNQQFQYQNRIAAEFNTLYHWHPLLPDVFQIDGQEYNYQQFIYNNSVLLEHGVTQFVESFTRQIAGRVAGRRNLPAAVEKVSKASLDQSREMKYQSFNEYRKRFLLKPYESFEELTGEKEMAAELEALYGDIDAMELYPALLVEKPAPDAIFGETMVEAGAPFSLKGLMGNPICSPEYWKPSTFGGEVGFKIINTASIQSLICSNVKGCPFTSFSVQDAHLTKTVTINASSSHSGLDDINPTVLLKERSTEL
Assay: biochemical
Type: biochemical
Protocol: The ovine COX-1 and COX-2 activities and the measurement of the prostaglandin products synthesized were performed using the COX Inhibitor Screening Assay (Cayman Chemical, Ann Arbor, Mich., which also contained the Prostaglandin Screening EIA Kit, used for prostaglandin quantification). The test compounds were dissolved at 50 times the highest final reaction concentration in DMSO or any other suitable solvent as stock solutions. These stock solutions were then diluted in the same solvent. Eight glass test tubes (13×100 mm) were placed in a 37° C. water bath. To each test tube was added 950 μL of reaction buffer (0.1 M Tris-HCl, pH 8.0, containing 5 mM EDTA, and 2 mM phenol), 10 μL of 100 µM heme solution, and 10 μL (5 units) of either ovine COX-1 or COX-2 and the resulting mixture was incubated with the enzyme for 2 minutes. Twenty μL of the solvent was added to one tube (100% initial activity or solvent control) and 20 μL of each dilution of the test compound was added to one tube each. Each tube was vortexed immediately after the addition. The enzyme was incubated with the inhibitor for 3.5 minutes at 37° C. The enzymatic reaction was then initiated by the addition of 10 μL of freshly prepared 10 mM arachidonic acid (neutralized with KOH), vortexed and then incubated for 2 minutes at 37° C. The reaction was terminated by the addition of 50 μL of 1 M HCl, vortexed and placed at room temperature. One hundred microliters of a saturated stannous chloride solution (50 mg/mL of 0.1 M HCl) was added and the reaction mixture was allowed to stand at room temperature for at least 5 minutes.
The prostaglandins (PG) produced in the reactions were assayed, after a 2,000-fold dilution, using the Prostaglandin Screening EIA Kit (Cayman Chemical, Ann Arbor, Mich.). The assay-contains an antibody with broad specificity for all the prostaglandin families (PGF, PGE, PGD, and thromboxane B-type) synthesized in the COX-1/COX 2 reactions. The synthesized prostaglandin competes with a PG-tagged acetylcholine esterase tracer for binding to the PG antibody. Binding of synthesized PG lowers the calorimetric development of the Ellman's Reagent (computed as % B/B0). The actual amount of synthesized PG was interpolated from a standard curve using known amounts of supplied prostaglandin E2 (PGE2) (PGE2 concentration vs. % B/B0). The data generated were the mean±standard deviation of triplicate wells in the EIA for a single reaction at a given inhibitor concentration.

NS(=O)(=O)c1ccc(-c2c(-c3ccccc3)noc2CO[N+](=O)[O-])cc1 [Example 2b, 4-(5-((Nitrooxy)methyl)-3-phenylisoxazol-4-yl)benzenesulfonamide]
IC50: 1.2 µM
